Experimental data taken from paper PMC13198257, “An aerosolized dual-action autotaxin inhibitor-PPARγ agonist for the treatment of pulmonary fibrosis” (Cell Reports Medicine, 2026).

How the values were obtained:
[1] = target: T1, ATX (Homo sapiens, UniProt Q13822); experiment: Mode of ATX inhibition, Lineweaver-Burk plots (various LPC concentrations); format: biochemical
T1 construct: purchased Sino Biological 11308-H07H
Experimental: To determine the mode of inhibition of ATX, various concentrations of TGZ, compound 5 and EL244 were tested against various LPC concentrations. Specifically, TGZ was tested against 6.25, 12.5, 25, 50 and 100 μM LPC, compound 5 was tested against 3.125, 6.25, 12.5, 25, 50 and 100 μM LPC, while EL244 was tested against 25, 50, 100 and 150 μM LPC. Lineweaver–Burk graphs depicting the reciprocal of velocity (1/V) against the reciprocal of substrate concentration (1/S) were plotted with GraphPad Software.

[2] = system: ATX activity in serum; experiment: TOOS assay: ex vivo lyso-PLD (ATX) activity in serum with 2 mM exogenous LPC; format: biochemical
Experimental: ATX inhibitory activity ex vivo of examined compounds was assessed via the colorimetric TOOS assay.[32]^,[35]^,[36] The assay was done in Lyso-PLD buffer (100 mM Tris-Cl, pH 8, 500 mM NaCl, 5 mM MgCl2, 5 mM CaCl2). A mix of Lyso-PLD buffer and serum (10:1) was prepared. LPC 16:0 was added to this mix at a final concentration of 2 mM. Increasing concentrations of compounds and a choline standard curve (0–100 μM) were prepared using the Lyso-PLD buffer/serum/LPC mix and 100 μL of these were placed in separate wells of a 96-well plate, followed by a 5 h incubation at 37°C. 100 μL of color mix (TOOS 0.3 mM, 4-AAP 0.5 mM, choline oxidase 2 U/mL, HRP 7.95 U/mL in Lyso-PLD buffer) were added to each well. Color was measured at 550 nm using an Optimax spectrophotometer. Background was subtracted from all values to account for the endogenous LPC and choline in the serum. Produced choline levels were calculated from the choline standard curve and indicate the amount of substrate (LPC) that had been consumed in each well corresponding to Lyso-PLD activity.

[3] = target: T2, PPARγ (Homo sapiens, UniProt P37231); experiment: PPARγ Gal4 hybrid reporter gene assay; format: cell-based; settings: for EC50 / PPARγ fold activ. (max. activation): Gal4-hybrid reporter, HEK293T cells; for Selectivity for PPARγ: versus PPARα and PPARδ hybrid reporters
T2 construct: expressed in transfected cells; host or cells: HEK293T
T2 sequence (P37231 238-503 limits assumed): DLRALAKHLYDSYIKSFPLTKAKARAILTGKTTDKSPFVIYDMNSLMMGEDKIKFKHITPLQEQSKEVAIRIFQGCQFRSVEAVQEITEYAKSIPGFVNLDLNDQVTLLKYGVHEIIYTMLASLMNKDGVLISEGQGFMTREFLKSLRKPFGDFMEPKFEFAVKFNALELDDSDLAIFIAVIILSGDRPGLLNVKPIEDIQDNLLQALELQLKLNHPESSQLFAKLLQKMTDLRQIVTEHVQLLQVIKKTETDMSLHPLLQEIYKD
Experimental: All well-established assays were performed following straightforward methodology.[49] Plasmids pFA-CMV-hPPARα-LBD, pFA-CMV-hPPARγ-LBD and pFA-CMV-hPPARδ-LBD code for the hinge region and ligand binding domain of the canonical isoform of the respective nuclear receptor and were used to express the Gal4 hybrid receptors. pFR-Luc (Stratagene, La Jolla, CA, USA) and pRL-SV40 (Promega, Madison, WI, USA) were used as Gal4-responsive reporter and as internal control in the hybrid reporter gene assays, respectively. HEK293T cells were seeded in 96-well plates (3×10^4 cells/well). Before transfection, the medium was changed to Opti-MEM without supplements, and transient transfection with the plasmids pFR-Luc, pRL-SV40, and one pFA-CMV-NR-LBD clone was carried out using Lipofectamine LTX reagent (Invitrogen, Carlsbad, CA, USA) according to the manufacturer’s protocol. […] Normalisation of transfection efficiency and cell growth was performed by dividing firefly luminescence by Renilla luminescence and multiplying the result by 1000, yielding relative light units (RLU). Fold activation was obtained by dividing the mean RLU of the test compound by the mean RLU of the untreated control.

[4] = target: T3, PPARγ LBD (Homo sapiens, UniProt P37231); experiment: Isothermal titration calorimetry (ITC); format: binding; settings: for Kd: PPARγ LBD, 25°C
T3 construct: using recombinant PPARγ LBD protein dissolved in a buffer; made in house
T3 sequence (P37231 238-503 limits assumed): T2 sequence (P37231 238-503 limits assumed)
Experimental: ITC was performed[49] on a TA Instruments Affinity ITC (TA Instruments, New Castle, Delaware, USA), using recombinant PPARγ LBD protein dissolved in a buffer containing 25 mM HEPES, 150 mM KF, 5 mM DTT, 10% w/v glycerol and 1% DMSO at pH 7.5. […] The titration was performed at 25°C with a stirring rate of 75 rpm. An interval of 300 s was maintained between injections. ITC raw data were analyzed with the NanoAnalyze software package (version 3.7.5). An independent binding model was used to fit the reaction enthalpy (ΔH), binding affinity constant (KD), and stoichiometry (n). Free energy change (ΔG) was calculated with the equation ΔG = −RT ln K and the entropy (ΔS) was calculated with the equation ΔG = ΔH−TΔS.

[5] = Cytotoxicity in HepG2 hepatocytes; format: cell-based; settings: human, HepG2 cells
[6] = system: BLM-induced pulmonary fibrosis; experiment: BLM-induced pulmonary fibrosis model, inhaled drug; format: in vivo, C57Bl/6 mice
Excerpt: BLM-induced pulmonary fibrosis was induced via the oropharyngeal aspiration of BLM (0.8 U/Kg).[54]^,[55]^,[141] The dose and route of administration have been selected following extensive local testing to minimise lethality while preserving a solid and reproducible fibrotic profile. Readout assays include weight and overall health status, pulmonary oedema and inflammation, collagen levels determination (soluble in BALFs, Q-RT-PCR and histology in lung tissue), lung histology with specialised stainings (Fast green/picrosirius red), as well as the measurement of respiratory functions (flexiVent, SQIREQ); a detailed protocol is publicly available at protocols.io.
Drug inhalation of compound 5 and EL244 to conscious, softly restrained mice was performed using the inExpose system (Scireq).[55] Compound 5 and EL244 were diluted in Kolliphor (15% and 10%, respectively) to final concentrations of 6.5 and 9.02 mg/mL, respectively. Volumes of 1 mL (for 5) and 0.6 mL (for EL244) were aerosolized over 10 and 15 min, respectively in groups of 6 mice, corresponding to a final estimated dose of 15mg/Kg per mouse. Control groups received an aerosolized solution of Kolliphor (10–15%) in saline.

[7] = inhaled 15 mg/kg o.d., prophylactic mode
[8] = inhaled 15 mg/kg o.d., therapeutic mode from day 7 post-BLM
[9] = inhaled 15 mg/kg b.i.d., therapeutic mode from 7 days post-BLM

## O=C1NC(=O)C(Cc2ccc(OCCC3CCN(C(=O)OCc4cc(Cl)cc(Cl)c4)CC3)cc2)S1 (centres unmarked) [EL244, 3,5-dichlorobenzyl 4-(2-(4-((2,4-dioxothiazolidin-5-yl)methyl)phenoxy)ethyl)piperidine-1-carboxylate]
[1]
  Mode of ATX inhibition: competitive
[2]
  lyso-PLD (ATX) inhibition in serum: Improved lyso-PLD inhibition
[3]
  EC50: 1.3 µM
  PPARγ fold activ. (max. activation): 17 ± 1 fold
  Selectivity for PPARγ: selectively
[4]
  Thermodynamics of binding to PPARγ-LBD: enthalpy-driven
  Kd: 1.3 µM
[5]
  CC50: 81.2 µM
[6]; BLM mice, inhaled EL244
  PPARγ target gene mRNA in lung tissue (RT-qPCR): marginal increases
[6]; [7]
  BALF soluble collagen: significantly reduced
  Histology: attenuated collagen deposition and reduced fibrotic regions
  Inflammation (BALF inflammatory cells): markedly reduced
  Lung tissue Col1a1 mRNA: significantly reduced
  Pulmonary edema (BALF total protein): markedly reduced
[6]; inhaled 15 mg/kg o.d., prophylactic mode, 15 days from one day before BLM
  Respiratory functions: significantly improved respiratory functions
[6]; [8]
  BALF soluble collagen: significantly reducing
  Effect on inflammation (BALF inflammatory cells): did not reach statistical significance
  Histopathology: reduced collagen deposition and fewer and smaller fibrotic regions
  Lung tissue Col1a1 expression: significantly reducing
  Respiratory functions: significantly restored all assessed respiratory functions
  Vascular permeability (BALF total protein): reduced vascular permeability

## O=C1NC(=O)C(Cc2ccc(OCCN3CCN(C(=O)OCc4cc(Cl)cc(Cl)c4)CC3)cc2)S1 (centres unmarked) [Compound 5, 3,5-dichlorobenzyl4-(2-(4-((2,4-dioxothiazolidin-5-yl)methyl)phenoxy)ethyl)piperazine-1-carboxylate]
[1]
  Mode of ATX inhibition: non-competitive
[2]
  lyso-PLD (ATX) inhibition in serum: dose-dependent effect
[3]
  EC50: 1.5 µM
  PPARγ fold activ. (max. activation): 9 ± 1 fold
  Selectivity for PPARγ: selective PPARγ agonist
[4]
  Thermodynamics of binding to PPARγ-LBD: entropy-driven
  Kd: 0.6 µM
[5]
  CC50: 90.3 µM
[6]; [9]
  BALF inflammatory cells: decreased inflammatory cells
  BALF total protein (vascular leak, pulmonary edema): decreased total protein levels
  Decrease of BALF soluble collagen: did not reach statistical significance
  Decrease of lung tissue Col1a1 mRNA: did not reach statistical significance
  Histology (H&E, fast green/Sirius red): fewer fibrotic regions and decreased collagen deposition
  Respiratory functions (Cst, Crs, A): efficiently attenuated the BLM-induced impairment of respiratory functions
